The values that follow come from paper PMC3949521 (Acta Crystallographica Section D: Biological Crystallography, 2014).

This assay has as its target T1, B. megaterium PBGD (Priestia megaterium, UniProt Q8GCA8).
T1 construct: gene hemC; His tag removed for crystals; gene encodes 310 residues; about 35 kDa; monomer; cofactor on Cys241; residues 42-62 disordered
In words: X-ray crystal structure, […] and […] Å. In kind it is binding. The settings on record: covalent (thioether to Cys241), pH 6.5-6.8, partial occupancy.

T1 sequence (Q8GCA8 entry or part of it): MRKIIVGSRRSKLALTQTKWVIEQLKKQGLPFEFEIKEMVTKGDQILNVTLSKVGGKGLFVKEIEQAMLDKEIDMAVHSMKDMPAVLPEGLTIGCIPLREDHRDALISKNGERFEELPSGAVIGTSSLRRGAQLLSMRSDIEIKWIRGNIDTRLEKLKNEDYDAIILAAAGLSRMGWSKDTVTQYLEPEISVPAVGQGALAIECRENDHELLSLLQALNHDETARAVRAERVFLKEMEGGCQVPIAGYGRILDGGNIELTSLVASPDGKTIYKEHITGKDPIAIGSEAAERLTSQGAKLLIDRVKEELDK

As to `N[C@@H](CSCc1[nH]c(CC2NC(=O)C(CCC(=O)O)=C2CC(=O)O)c(CCC(=O)O)c1CC(=O)O)C(=O)O` (some centres unmarked) [dipyrromethanone], the “X-ray crystal structure, 1.46 and 1.60 Å” value (shared with reduced conformer, inactive oxidized form, PDB also 4mlv) is “the 'oxidized' conformation of the cofactor is actually the partly reduced dipyrromethanone form”.

On to `N[C@@H](CSCc1[nH]c(Cc2[nH]cc(CCC(=O)O)c2CC(=O)O)c(CCC(=O)O)c1CC(=O)O)C(=O)O` [dipyrromethane cofactor], for which the “X-ray crystal structure, 1.46 and 1.60 Å” value (X-ray cannot tell dipyrromethane from dipyrromethene, PDB also 4mlq) is given as “one of which corresponds to the fully reduced dipyrromethane”.
